Reference: ChEMBL document CHEMBL4368892, “Isatin and its derivatives: a survey of recent syntheses, reactions, and applications” (Medchemcomm, 2019)

System: LoVo
Test: Antiproliferative activity against human LoVo cells by WST-1 assay
Assay type: functional, cell-based

| SMILES | IC50 |
| --- | --- |
| Cc1ccc2nc(SCC(=O)N/N=C3\C(=O)Nc4ccc(F)cc43)n(-c3ccccc3)c(=O)c2c1 | 9.91 to 17.9 µM |
| Cc1ccc2nc(SCC(=O)N/N=C3\C(=O)Nc4ccc(Cl)cc43)n(Cc3ccccc3)c(=O)c2c1 | 9.91 to 17.9 µM |
| O=C(CSc1nc2ccccc2c(=O)n1CCc1ccccc1)N/N=C1\C(=O)Nc2ccc(Cl)cc21 | 9.91 to 17.9 µM |
| O=C(CSc1nc2ccccc2c(=O)n1CCc1ccccc1)N/N=C1\C(=O)Nc2ccccc21 | 9.91 to 17.9 µM |
| Cc1ccc2nc(SCC(=O)N/N=C3\C(=O)Nc4ccccc43)n(Cc3ccccc3)c(=O)c2c1 | 9.91 to 17.9 µM |
| Cc1ccc2nc(SCC(=O)N/N=C3\C(=O)Nc4ccc(F)cc43)n(Cc3ccccc3)c(=O)c2c1 | 9.91 to 17.9 µM |
| Cc1ccc2nc(SCC(=O)N/N=C3\C(=O)Nc4ccc([N+](=O)[O-])cc43)n(Cc3ccccc3)c(=O)c2c1 | 9.91 to 17.9 µM |

More lines, now with the values ahead:

| IC50 | SMILES |
| --- | --- |
| 9.91 to 17.9 µM | Cc1ccc2nc(SCC(=O)N/N=C3\C(=O)Nc4ccccc43)n(-c3ccccc3)c(=O)c2c1 |
| 9.91 to 17.9 µM | O=C(CSc1nc2ccccc2c(=O)n1Cc1ccccc1)N/N=C1\C(=O)Nc2ccc([N+](=O)[O-])cc21 |
| 9.91 to 17.9 µM | O=C(CSc1nc2ccccc2c(=O)n1-c1ccccc1)N/N=C1\C(=O)Nc2ccc(Cl)cc21 |
| 9.91 to 17.9 µM | Cc1ccc2nc(SCC(=O)N/N=C3\C(=O)Nc4ccc(Cl)cc43)n(-c3ccccc3)c(=O)c2c1 |
| 9.91 to 17.9 µM | O=C(CSc1nc2ccccc2c(=O)n1CCc1ccccc1)N/N=C1\C(=O)Nc2ccc(F)cc21 |
| 9.91 to 17.9 µM | O=C(CSc1nc2ccccc2c(=O)n1-c1ccccc1)N/N=C1\C(=O)Nc2ccc([N+](=O)[O-])cc21 |
| 9.91 to 17.9 µM | Cc1ccc2nc(SCC(=O)N/N=C3\C(=O)Nc4ccc([N+](=O)[O-])cc43)n(-c3ccccc3)c(=O)c2c1 |

Target: Histone deacetylase
Test: Inhibition of HDAC (unknown origin)
Assay type: protein assay, Homo sapiens

| IC50 | SMILES |
| --- | --- |
| 0.97 µM | O=C(CNC(=S)N/N=C1\C(=O)Nc2ccc(Cl)cc21)NO |
